Data from patent US10246426B2, “Triazole compounds as T-type calcium channel blockers” (IDORSIA PHARMACEUTICALS LTD, priority 2014, dated 2019).

Molecular target: Cav3.2 (Homo sapiens, UniProt O95180)
Test: Calcium flux FLIPR assay, HEK293 cells recombinantly expressing Cav3.2
Format: cell-based
Settings: Cav3.2-channel, Ca2+ entry stimulated by 10 mM CaCl2
Procedure, shortened: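 Fluo-4-loaded HEK293 cells stably expressing Cav3.2, seeded overnight at 37 °C; compounds diluted in TEAC buffer (pH 7.2) and preincubated 3 min before Ca2+ entry triggered with CaCl2 at 10 mM final. Area under FLIPR fluorescence trace fitted sigmoidally; IC50 relative to vehicle signal.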

Sequence of Cav3.2 (O95180 whole entry, looked up): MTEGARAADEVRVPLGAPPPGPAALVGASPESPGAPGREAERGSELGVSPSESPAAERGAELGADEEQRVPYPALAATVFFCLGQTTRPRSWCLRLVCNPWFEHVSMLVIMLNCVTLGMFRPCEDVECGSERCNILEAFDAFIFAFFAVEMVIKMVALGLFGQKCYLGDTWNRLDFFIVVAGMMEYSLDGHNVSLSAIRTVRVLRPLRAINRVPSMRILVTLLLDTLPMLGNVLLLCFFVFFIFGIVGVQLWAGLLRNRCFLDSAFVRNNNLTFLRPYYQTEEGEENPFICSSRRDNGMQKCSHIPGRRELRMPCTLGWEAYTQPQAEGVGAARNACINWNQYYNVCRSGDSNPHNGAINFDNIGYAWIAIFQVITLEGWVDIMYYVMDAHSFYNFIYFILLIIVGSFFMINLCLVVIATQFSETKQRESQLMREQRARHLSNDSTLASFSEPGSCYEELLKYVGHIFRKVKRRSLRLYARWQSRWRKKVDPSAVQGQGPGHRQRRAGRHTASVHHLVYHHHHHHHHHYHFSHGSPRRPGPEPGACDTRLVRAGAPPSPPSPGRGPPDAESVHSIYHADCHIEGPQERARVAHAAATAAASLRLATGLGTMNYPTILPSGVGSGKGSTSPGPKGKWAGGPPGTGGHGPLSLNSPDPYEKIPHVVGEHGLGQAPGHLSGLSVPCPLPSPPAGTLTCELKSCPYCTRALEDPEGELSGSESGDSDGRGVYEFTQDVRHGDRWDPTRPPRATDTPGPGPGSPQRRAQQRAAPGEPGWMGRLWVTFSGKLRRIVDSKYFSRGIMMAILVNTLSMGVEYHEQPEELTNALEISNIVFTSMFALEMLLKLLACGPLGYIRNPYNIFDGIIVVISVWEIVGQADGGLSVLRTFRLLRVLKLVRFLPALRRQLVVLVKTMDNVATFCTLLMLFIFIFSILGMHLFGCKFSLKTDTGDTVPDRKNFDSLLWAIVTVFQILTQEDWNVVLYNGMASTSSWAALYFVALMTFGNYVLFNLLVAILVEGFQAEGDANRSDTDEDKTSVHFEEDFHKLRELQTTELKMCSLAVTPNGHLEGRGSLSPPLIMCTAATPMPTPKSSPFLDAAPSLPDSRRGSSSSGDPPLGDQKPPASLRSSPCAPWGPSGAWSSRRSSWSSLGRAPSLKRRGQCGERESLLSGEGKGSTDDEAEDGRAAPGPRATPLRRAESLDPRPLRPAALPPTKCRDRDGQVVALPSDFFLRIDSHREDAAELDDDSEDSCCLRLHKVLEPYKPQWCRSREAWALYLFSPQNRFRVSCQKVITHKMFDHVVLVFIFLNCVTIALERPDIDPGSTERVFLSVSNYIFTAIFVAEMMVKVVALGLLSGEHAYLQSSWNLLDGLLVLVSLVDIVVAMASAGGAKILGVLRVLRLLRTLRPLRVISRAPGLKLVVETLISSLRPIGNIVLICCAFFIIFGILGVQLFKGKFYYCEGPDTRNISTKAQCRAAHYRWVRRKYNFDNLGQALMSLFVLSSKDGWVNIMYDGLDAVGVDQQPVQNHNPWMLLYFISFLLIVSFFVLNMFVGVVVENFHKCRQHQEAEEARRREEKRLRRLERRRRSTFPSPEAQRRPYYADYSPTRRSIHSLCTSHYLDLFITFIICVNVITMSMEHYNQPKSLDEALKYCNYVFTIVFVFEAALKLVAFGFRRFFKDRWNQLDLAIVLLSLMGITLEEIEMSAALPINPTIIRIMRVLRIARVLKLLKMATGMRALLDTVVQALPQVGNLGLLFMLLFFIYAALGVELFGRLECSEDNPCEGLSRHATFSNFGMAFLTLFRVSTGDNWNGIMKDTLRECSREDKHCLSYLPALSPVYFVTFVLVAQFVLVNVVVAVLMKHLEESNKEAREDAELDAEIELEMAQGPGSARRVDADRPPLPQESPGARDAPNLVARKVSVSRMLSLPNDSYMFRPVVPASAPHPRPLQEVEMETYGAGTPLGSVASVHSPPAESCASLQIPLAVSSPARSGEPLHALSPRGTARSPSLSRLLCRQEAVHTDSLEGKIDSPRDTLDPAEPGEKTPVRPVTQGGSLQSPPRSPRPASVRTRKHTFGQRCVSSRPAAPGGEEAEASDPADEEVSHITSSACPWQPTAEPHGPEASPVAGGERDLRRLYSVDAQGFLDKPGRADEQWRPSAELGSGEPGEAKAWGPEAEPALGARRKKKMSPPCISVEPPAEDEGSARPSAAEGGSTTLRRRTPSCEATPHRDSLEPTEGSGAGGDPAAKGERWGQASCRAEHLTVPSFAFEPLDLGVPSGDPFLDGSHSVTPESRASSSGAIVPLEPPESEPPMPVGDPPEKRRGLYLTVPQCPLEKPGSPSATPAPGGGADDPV

| SMILES | IC50 [nM] |
| --- | --- |
| Cc1ccc(Cn2ncc(NC(=O)Cc3ccc4c(cnn4C)c3)n2)cc1C#N [Example 204, N-[2-(3-Cyano-4-methyl-benzyl)-2H-[1,2,3]triazol-4-yl]-2-(1-methyl-1H-indazol-5-yl)-acetamide] | 280 |
| COc1ccc(Cn2ncc(NC(=O)Cc3ccc(C(C)C)cc3)n2)cc1C#N [Example 205, N-[2-(3-Cyano-4-methoxy-benzyl)-2H-[1,2,3]triazol-4-yl]-2-(4-isopropyl-phenyl)-acetamide] | 160 |
| COC1(c2ccc(CC(=O)Nc3cnn(Cc4ccc(C)c(C#N)c4)n3)cc2)COC1 [Example 206, N-[2-(3-Cyano-4-methyl-benzyl)-2H-[1,2,3]triazol-4-yl]-2-[4-(3-methoxy-oxetan-3-yl)-phenyl]-acetamide] | 900 |
| COc1ccc(Cn2ncc(NC(=O)Cc3ccc(N4CCC(F)(F)C4)nc3)n2)cc1C#N [Example 207, N-[2-(3-Cyano-4-methoxy-benzyl)-2H-[1,2,3]triazol-4-yl]-2-[6-(3,3-difluoro-pyrrolidin-1-yl)-pyridin-3-yl]-acetamide] | 130 |
| COc1ccc(Cn2ncc(NC(=O)Cc3ccc4c(cnn4C)c3)n2)cc1C#N [Example 208, N-[2-(3-Cyano-4-methoxy-benzyl)-2H-[1,2,3]triazol-4-yl]-2-(1-methyl-1H-indazol-5-yl)-acetamide] | 600 |
| Cc1ccc(Cn2ncc(NC(=O)Cc3ccc(OC4CC(F)(F)C4)cc3)n2)cc1C#N [Example 209, N-[2-(3-Cyano-4-methyl-benzyl)-2H-[1,2,3]triazol-4-yl]-2-[4-(3,3-difluoro-cyclobutoxy)-phenyl]-acetamide] | 180 |
| COc1cc(Cn2ncc(NC(=O)Cc3ccc4c(c3)c(C)nn4C)n2)cc(F)c1F [Example 210, N-[2-(3,4-Difluoro-5-methoxy-benzyl)-2H-[1,2,3]triazol-4-yl]-2-(1,3-dimethyl-1H-indazol-5-yl)-acetamide] | 260 |
| Cc1ccc(Cn2ncc(NC(=O)Cc3ccc(N4CCC(F)(F)C4)nc3)n2)cc1C#N [Example 211, N-[2-(3-Cyano-4-methyl-benzyl)-2H-[1,2,3]triazol-4-yl]-2-[6-(3,3-difluoro-pyrrolidin-1-yl)-pyridin-3-yl]-acetamide] | 82 |
| COc1cc(Cn2ncc(NC(=O)Cc3ccc4c(cnn4C)c3)n2)cc(F)c1F [Example 212, N-[2-(3,4-Difluoro-5-methoxy-benzyl)-2H-[1,2,3]triazol-4-yl]-2-(1-methyl-1H-indazol-5-yl)-acetamide] | 230 |
| Cc1ccc(Cn2ncc(NC(=O)Cc3ccc(N4CCCC4)nc3)n2)cc1C#N [Example 213, N-[2-(3-Cyano-4-methyl-benzyl)-2H-[1,2,3]triazol-4-yl]-2-(6-pyrrolidin-1-yl-pyridin-3-yl)-acetamide] | 120 |
| COc1ccc(Cn2ncc(NC(=O)Cc3ccc(C4(F)COC4)cc3)n2)cc1C#N [Example 214, N-[2-(3-Cyano-4-methoxy-benzyl)-2H-[1,2,3]triazol-4-yl]-2-[4-(3-fluoro-oxetan-3-yl)-phenyl]-acetamide] | 250 |
| Cc1ccc(Cn2ncc(NC(=O)Cc3ccc4cnn(C)c4c3)n2)cc1C#N [Example 215, N-[2-(3-Cyano-4-methyl-benzyl)-2H-[1,2,3]triazol-4-yl]-2-(1-methyl-1H-indazol-6-yl)-acetamide] | 650 |
| Cc1ccc(Cn2ncc(NC(=O)Cc3ccc(C(C)C)cc3)n2)cc1C#N [Example 216, N-[2-(3-Cyano-4-methyl-benzyl)-2H-[1,2,3]triazol-4-yl]-2-(4-isopropyl-phenyl)-acetamide] | 74 |
| Cc1ccc(Cn2ncc(NC(=O)Cc3ccc(C(C)(C)C)cc3)n2)cc1C#N [Example 217, 2-(4-tert-Butyl-phenyl)-N-[2-(3-cyano-4-methyl-benzyl)-2H-[1,2,3]triazol-4-yl]-acetamide] | 160 |
| COc1cc(Cn2ncc(NC(=O)Cc3ccc(C(C)(C)C)cc3)n2)cc(F)c1F [Example 218, 2-(4-tert-Butyl-phenyl)-N-[2-(3,4-difluoro-5-methoxy-benzyl)-2H-[1,2,3]triazol-4-yl]-acetamide] | 590 |
| COc1cc(Cn2ncc(NC(=O)Cc3ccc(N4CCC(F)(F)C4)nc3)n2)cc(F)c1F [Example 219, N-[2-(3,4-Difluoro-5-methoxy-benzyl)-2H-[1,2,3]triazol-4-yl]-2-[6-(3,3-difluoro-pyrrolidin-1-yl)-pyridin-3-yl]-acetamide] | 120 |
| CCn1ncc2cc(CC(=O)Nc3cnn(Cc4cc(F)c(F)c(OC)c4)n3)ccc21 [Example 220, N-[2-(3,4-Difluoro-5-methoxy-benzyl)-2H-[1,2,3]triazol-4-yl]-2-(1-ethyl-1H-indazol-5-yl)-acetamide] | 190 |
| COc1cc(Cn2ncc(NC(=O)Cc3ccc(N4CCCC4)nc3)n2)cc(F)c1F [Example 221, N-[2-(3,4-Difluoro-5-methoxy-benzyl)-2H-[1,2,3]triazol-4-yl]-2-(6-pyrrolidin-1-yl-pyridin-3-yl)-acetamide] | 160 |
| COc1cc(Cn2ncc(NC(=O)Cc3ccc(C(C)C)cc3)n2)cc(F)c1F [Example 222, N-[2-(3,4-Difluoro-5-methoxy-benzyl)-2H-[1,2,3]triazol-4-yl]-2-(4-isopropyl-phenyl)-acetamide] | 300 |
| COc1ccc(Cn2ncc(NC(=O)Cc3ccc(OC4CC(F)(F)C4)cc3)n2)cc1C#N [Example 223, N-[2-(3-Cyano-4-methoxy-benzyl)-2H-[1,2,3]triazol-4-yl]-2-[4-(3,3-difluoro-cyclobutoxy)-phenyl]-acetamide] | 120 |
| COc1cc(Cn2ncc(NC(=O)Cc3ccc(C4(F)COC4)cc3)n2)cc(F)c1F [Example 224, N-[2-(3,4-Difluoro-5-methoxy-benzyl)-2H-[1,2,3]triazol-4-yl]-2-[4-(3-fluoro-oxetan-3-yl)-phenyl]-acetamide] | 190 |
| COc1cc(Cn2ncc(NC(=O)Cc3ccc4cnn(C)c4c3)n2)cc(F)c1F [Example 225, N-[2-(3,4-Difluoro-5-methoxy-benzyl)-2H-[1,2,3]triazol-4-yl]-2-(1-methyl-1H-indazol-6-yl)-acetamide] | 560 |
| Cc1ccc(Cn2ncc(NC(=O)Cc3ccc(C4(C(F)(F)F)CC4)cc3)n2)cc1C#N [Example 226, N-[2-(3-Cyano-4-methyl-benzyl)-2H-[1,2,3]triazol-4-yl]-2-[4-(1-trifluoromethyl-cyclopropyl)-phenyl]-acetamide] | 250 |
| COc1cc(Cn2ncc(NC(=O)Cc3ccc(OC4CC(F)(F)C4)cc3)n2)cc(F)c1F [Example 230, 2-[4-(3,3-Difluoro-cyclobutoxy)-phenyl]-N-[2-(3,4-difluoro-5-methoxy-benzyl)-2H-[1,2,3]triazol-4-yl]-acetamide] | 350 |

Next, values leading:

| IC50 [nM] | SMILES |
| --- | --- |
| 770 | COc1cc(Cn2ncc(NC(=O)Cc3ccc(C4(C(F)(F)F)CC4)cc3)n2)cc(F)c1F [Example 227, N-[2-(3,4-Difluoro-5-methoxy-benzyl)-2H-[1,2,3]triazol-4-yl]-2-[4-(1-trifluoromethyl-cyclopropyl)-phenyl]-acetamide] |
| 300 | COc1cc(Cn2ncc(NC(=O)Cc3ccc(C4(OC)COC4)cc3)n2)cc(F)c1F [Example 228, N-[2-(3,4-Difluoro-5-methoxy-benzyl)-2H-[1,2,3]triazol-4-yl]-2-[4-(3-methoxy-oxetan-3-yl)-phenyl]-acetamide] |
| 130 | COc1cc(Cn2ncc(NC(=O)Cc3ccc(OCC4(F)COC4)cc3)n2)cc(F)c1F [Example 229, N-[2-(3,4-Difluoro-5-methoxy-benzyl)-2H-[1,2,3]triazol-4-yl]-2-[4-(3-fluoro-oxetan-3-ylmethoxy)-phenyl]-acetamide] |
| 36 | N#Cc1ccc(Cn2ncc(NC(=O)Cc3ccc(C4(C#N)CC4)cc3)n2)cc1F [Example 231, 2-[4-(1-Cyano-cyclopropyl)-phenyl]-N-[2-(4-cyano-3-fluoro-benzyl)-2H-[1,2,3]triazol-4-yl]-acetamide] |
| 110 | N#Cc1ccc(Cn2ncc(NC(=O)Cc3ccc(S(F)(F)(F)(F)F)cc3)n2)cc1F [Example 232, N-(2-(4-cyano-3-fluorobenzyl)-2H-1,2,3-triazol-4-yl)-2-(4-(pentafluoro-λ6-sulfanyl)phenyl)acetamide] |
| 76 | Cn1ncc2cc(CC(=O)Nc3cnn(Cc4ccc(C#N)cc4)n3)ccc21 [Example 234, N-[2-(4-Cyano-benzyl)-2H-[1,2,3]triazol-4-yl]-2-(1-methyl-1H-indazol-5-yl)-acetamide] |
| 92 | Cc1cc(Cn2ncc(NC(=O)Cc3ccc(C4(F)COC4)cc3)n2)ccc1C#N [Example 235, N-[2-(4-Cyano-3-methyl-benzyl)-2H-[1,2,3]triazol-4-yl]-2-[4-(3-fluoro-oxetan-3-yl)-phenyl]-acetamide] |
| 160 | COc1ccc(Cn2ncc(NC(=O)Cc3ccc(N4CCCC4)nc3)n2)cc1C#N [Example 236, N-[2-(3-Cyano-4-methoxy-benzyl)-2H-[1,2,3]triazol-4-yl]-2-(6-pyrrolidin-1-yl-pyridin-3-yl)-acetamide] |
| 200 | COC1(c2ccc(CC(=O)Nc3cnn(Cc4ccc(C#N)cc4)n3)cc2)COC1 [Example 237, N-[2-(4-Cyano-benzyl)-2H-[1,2,3]triazol-4-yl]-2-[4-(3-methoxy-oxetan-3-yl)-phenyl]-acetamide] |
| 24 | N#Cc1ccc(Cn2ncc(NC(=O)Cc3ccc(OCC4CC(F)(F)C4)cc3)n2)cc1 [Example 238, N-[2-(4-Cyano-benzyl)-2H-[1,2,3]triazol-4-yl]-2-[4-(3,3-difluoro-cyclobutylmethoxy)-phenyl]-acetamide] |
| 210 | COc1cc(Cn2ncc(NC(=O)Cc3ccc(C(C)(C)C)cc3)n2)ccc1C#N [Example 239, 2-(4-tert-Butyl-phenyl)-N-[2-(4-cyano-3-methoxy-benzyl)-2H-[1,2,3]triazol-4-yl]-acetamide] |
| 180 | COc1cc(Cn2ncc(NC(=O)Cc3ccc4c(c3)c(C)cn4C)n2)cc(F)c1F [Example 240, N-[2-(3,4-Difluoro-5-methoxy-benzyl)-2H-[1,2,3]triazol-4-yl]-2-(1,3-dimethyl-1H-indol-5-yl)-acetamide] |
